Values after ≈ are worked out from the molar mass of the structure shown. Each block holds one compound with its values, some of them ahead of it.
Key:
U-87 MG [1] = assay: Cytotoxicity against human U87 cells incubated for 48 hrs by MTT reagent based spectrophotometric analysis; assay type: functional, cell-based, U-87MG ATCC
[2] = Antitumor activity against human OC3-IV2 cells xenografted in CB17-Prkdcscid/CrlNarl mouse assessed as reduction in tumor size at 2 mg/kg,ip administrated once every 3 days for 2 weeks; assay type: functional; set-up: scale not given: the % may be the effect or the level left
PC-3 = assay: Cytotoxicity against human PC-3 cells incubated for 48 hrs by MTT reagent based spectrophotometric analysis; assay type: functional, cell-based; conditions: PC-3, 48 h
[3] = Cytotoxicity against human OC3-IV2 cells incubated for 48 hrs by MTT reagent based spectrophotometric analysis; assay type: functional, cell-based; conditions: OC3-IV2, 48 h
NCI-H1299 [4] = assay: Cytotoxicity against human NCI-H1299 cells incubated for 48 hrs by MTT reagent based spectrophotometric analysis; assay type: functional, cell-based; conditions: NCI-H1299, 48 h
SCC-25 [5] = assay: Induction of apoptosis in human SCC-25 cells at 7 uM incubated for 48 hrs by annexin V-FITC/PI staining based flow cytometry relative to control; assay type: functional
A253 cell line = assay: Cytotoxicity against human A253 cell line incubated for 48 hrs by MTT assay; assay type: functional, cell-based; conditions: A253, 48 h
SCC-25 [6] = assay: Cytotoxicity against human SCC-25 cells incubated for 48 hrs by MTT assay; assay type: functional, cell-based; conditions: SCC-25, 48 h
SCC-9 = assay: Cytotoxicity against human SCC-9 cells incubated for 48 hrs by MTT assay; assay type: functional, cell-based; conditions: SCC-9, 48 h
HepG2 [7] = assay: Antitumor activity against human HepG2 cells xenografted in BALB/c mouse assessed as reduction in tumor growth at 10 to 20 mg/kg,iv administrated once every 3 days for 3 weeks; assay type: functional; set-up: scale not given: the % may be the effect or the level left; conditions: dose 10-20 mg/kg
HepG2 [8] = assay: Cytotoxicity against human HepG2 cells assessed as reduction in cell viability incubated for 48 hrs by MTT reagent based spectrophotometric analysis; assay type: functional; conditions: HepG2, 48 h
HCT-116 [9] = assay: Cytotoxicity against human HCT-116 cells assessed as reduction in cell viability incubated for 48 hrs by MTT reagent based spectrophotometric analysis; assay type: functional; conditions: HCT-116, 48 h
SK-OV-3 = assay: Cytotoxicity against human SK-OV-3 cells assessed as reduction in cell viability incubated for 48 hrs by MTT reagent based spectrophotometric analysis; assay type: functional; conditions: SK-OV-3, 48 h
MDA-MB-231 [10] = assay: Antitumor activity against human MDA-MB-231 cells xenografted in mouse assessed as reduction in tumor volume; assay type: functional
MDA-MB-231 [11] = assay: Antiproliferative activity against human MDA-MB-231 cells incubated for 24 hrs by CCK-8 assay; assay type: functional, cell-based; conditions: MDA-MB-231, 24 h
[12] = Antiproliferative activity against human SUM1315MO2 cells incubated for 24 hrs by CCK-8 assay; assay type: functional, cell-based; conditions: SUM1315MO2, 24 h
MCF7 [13] = assay: Antiproliferative activity against human MCF7 cells incubated for 24 hrs by CCK-8 assay; assay type: functional, cell-based; conditions: MCF7, 24 h
MDA-MB-453 = assay: Antiproliferative activity against human MDA-MB-453 cells incubated for 24 hrs by CCK-8 assay; assay type: functional, cell-based; conditions: MDA-MB-453, 24 h
A549 [14] = assay: Antiproliferative activity against human A549 cells incubated for 72 hrs by MTT assay; assay type: functional, cell-based; conditions: A549, 72 h
HepG2 [15] = assay: Antiproliferative activity against human HepG2 cells incubated for 72 hrs by MTT assay; assay type: functional, cell-based; conditions: HepG2, 72 h
[16] = Antitumor activity against mouse Lewis lung carcinoma cell line implanted in C57BL/6J mouse assessed as reduction in tumor volume at 6 mg/kg administration; assay type: functional; set-up: scale not given: the % may be the effect or the level left
HCT-116 [17] = assay: Antiproliferative activity against human HCT-116 cells incubated for 72 hrs by MTT assay; assay type: functional, cell-based; conditions: HCT-116, 72 h
HepG2 [18] = assay: Cytotoxicity against human HepG2 cells incubated for 24 hrs by CCK-8 assay; assay type: functional, cell-based; conditions: HepG2, 24 h
SW-620 = assay: Cytotoxicity against human SW620 cells incubated for 24 hrs by CCK-8 assay; assay type: functional, cell-based; conditions: SW-620, 24 h
A549 [19] = assay: Cytotoxicity against human A549 cells incubated for 24 hrs by CCK-8 assay; assay type: functional, cell-based; conditions: A549, 24 h
Huh-7 = assay: Cytotoxicity against human Huh-7 cells incubated for 24 hrs by CCK-8 assay; assay type: functional, cell-based; conditions: Huh-7, 24 h
NCI-H460 = assay: Cytotoxicity against human NCI-H460 cells incubated for 24 hrs by CCK-8 assay; assay type: functional, cell-based; conditions: NCI-H460, 24 h
MCF7 [20] = assay: Cytotoxicity against human MCF7 cells incubated for 24 hrs by CCK-8 assay; assay type: functional, cell-based; conditions: MCF7, 24 h
NCI-H1299 [21] = assay: Cytotoxicity against human NCI-H1299 cells incubated for 24 hrs by CCK-8 assay; assay type: functional, cell-based; conditions: NCI-H1299, 24 h
HCT-116 [22] = assay: Cytotoxicity against human HCT-116 cells incubated for 24 hrs by CCK-8 assay; assay type: functional, cell-based; conditions: HCT-116, 24 h
SW480 [23] = assay: Antitumor activity against human SW480 cells xenografted in BALB/c mouse assessed as reduction in tumor volume at 20 mg/kg,po administrated with olaparib for 15 days; assay type: functional; set-up: scale not given: the % may be the effect or the level left; conditions: time 15 day
MDA-MB-231 [24] = assay: Cytotoxicity against human MDA-MB-231 cells incubated for 24 hrs by CCK-8 assay; assay type: functional, cell-based; conditions: MDA-MB-231, 24 h
BT-549 = assay: Cytotoxicity against human BT-549 cells incubated for 24 hrs by CCK-8 assay; assay type: functional, cell-based; conditions: BT-549, 24 h
SW480 [25] = assay: Cytotoxicity against human SW480 cells incubated for 24 hrs by CCK-8 assay; assay type: functional, cell-based; conditions: SW480, 24 h
SK-BR-3 = assay: Cytotoxicity against human SK-BR-3 cells incubated for 24 hrs by CCK-8 assay; assay type: functional, cell-based; conditions: SK-BR-3, 24 h
MDA-MB-468 = assay: Cytotoxicity against human MDA-MB-468 cells incubated for 24 hrs by CCK-8 assay; assay type: functional, cell-based; conditions: MDA-MB-468, 24 h
U-87 MG [26] = assay: Antitumor activity against human U87 cells xenografted in BALB/c mouse assessed as increase in survival time of animal at 1 mg/kg,ip administrated once every 3 days for 40 days; assay type: functional, U-87MG ATCC; conditions: time 40 day
HepG2 [27] = assay: Antiproliferative activity against human HepG2 cells assessed as inhibition of cell growth incubated upto 48 hrs by MTT assay; assay type: functional, cell-based; conditions: HepG2, 48 h
C6 [28] = assay: Antiproliferative activity against rat C6 cells assessed as inhibition of cell growth incubated for 48 hrs by MTS/PMS assay; assay type: functional, cell-based; conditions: C6, 48 h
C6 [29] = assay: Antitumor activity against rat C6 cells implanted in Wistar rat assessed as reduction in tumor volume at 100 mg/kg,IG administration once daily for 20 days; assay type: functional; set-up: scale not given: the % may be the effect or the level left; conditions: time 20 day
DBTRG-05MG [30] = assay: Antiproliferative activity against human DBTRG-05MG cells assessed as inhibition of cell growth incubated for 72 hrs in presence of sodium orthovanadate by cell counting kit method; assay type: functional, cell-based
DBTRG-05MG [31] = assay: Antiproliferative activity against human DBTRG-05MG cells assessed as inhibition of cell growth incubated for 72 hrs by cell counting kit method; assay type: functional, cell-based; conditions: Homo sapiens, DBTRG-05MG, 72 h
AGS = assay: Cytotoxicity against human AGS cells incubated for 24 hrs by MTS assay; assay type: functional, cell-based
MCF7 [32] = assay: Cytotoxicity against human MCF7 cells incubated for 7 days by MTT assay; assay type: functional, cell-based; conditions: MCF7, 168 h
HL-60 = assay: Cytotoxicity against human HL-60 cells assessed as reduction in cell viability incubated for 48 to 72 hrs by MTT assay; assay type: functional, cell-based
EL4 = assay: Antitumor activity against mouse EL4 cells implanted in C57BL/6 mouse assessed as increase in survival of animal at 2 mg/kg,ip administrated for 5 consecutive days for 3 weeks; assay type: functional
MDA-MB-231 [33] = assay: Antiproliferative activity against human MDA-MB-231 cells assessed as inhibition of cell growth incubated for 48 hrs by crystal violet staining based ELISA; assay type: functional; conditions: MDA-MB-231, 48 h
MCF7 [34] = assay: Antiproliferative activity against human MCF7 cells assessed as inhibition of cell growth incubated for 48 hrs by crystal violet staining based ELISA; assay type: functional; conditions: MCF7, 48 h
[35] = Cytotoxicity against human MCF7/LCC2 cells incubated for 7 days by MTT assay; assay type: functional, cell-based; conditions: MCF7/LCC2, 168 h
[36] = Cytotoxicity against human MCF7/LCC9 cells incubated for 7 days by MTT assay; assay type: functional, cell-based; conditions: MCF7, 168 h
NAMALVA [37] = assay: Antitumor activity against human NAMALVA cells xenografted in NOD/SCID mouse assessed as reduction in tumor weight at 4 mg/kg,ip administration for 19 consecutive days; assay type: functional; set-up: scale not given: the % may be the effect or the level left
[38] = Cytotoxicity against human Lung adenocarcinoma cell line; assay type: functional, cell-based
A549 [39] = assay: Cytotoxicity against human A549 cells incubated for 24 hrs by MTT assay; assay type: functional, cell-based; conditions: A549, 24 h
NAMALVA [40] = assay: Antiproliferative activity against human NAMALVA cells assessed as inhibition of cell growth incubated upto 24 hrs by MTT assay; assay type: functional, cell-based

SMILES: CC1=CC(=O)c2cccc(O)c2C1=O
IC50 (U-87 MG [1]): 2.4 µM
Activity [2]: 50%
IC50 (PC-3): 6 µM
IC50 [3]: 5.4 µM
IC50 (NCI-H1299 [4]): 1.5 µM

SMILES: Cc1cn([C@H]2C[C@H](N=[N+]=[N-])[C@@H](COC3=C(Cl)C(=O)c4ccccc4C3=O)O2)c(=O)[nH]c1=O
Activity (SCC-25 [5]): 30%
IC50 (A253 cell line): 5.99 µM
IC50 (SCC-25 [6]): 6.15 µM
IC50 (SCC-9): 8 µM

SMILES: CCCNC(=O)C(Cc1ccccc1)NC1=C/C(=N/O)c2ccccc2C1=O (centres undefined)
Activity (HepG2 [7]): >60%
IC50 (HepG2 [8]): 0.16 µM
IC50 (HCT-116 [9]): 0.18 µM
IC50 (SK-OV-3): 0.48 µM

IC50 (MDA-MB-231 [11]): 3.49 µM
IC50 (MCF7 [13]): 6.45 µM
IC50 (MDA-MB-453): 6.94 µM
SMILES: COC(=O)C(NC(=O)CCCCC1CCSC(c2ccc(OC)cc2)S1)S[C@H](CC=C(C)C)C1=CC(=O)c2c(O)ccc(O)c2C1=O (some centres undefined)
Activity (MDA-MB-231 [10]): 200 mm3
IC50 [12]: 10.5 µM

IC50 (A549 [14]): 1.67 µM
IC50 (HepG2 [15]): 14.8 µM
IC50 (HCT-116 [17]): > 20 µM
SMILES: CC(C)=CC[C@H](OC(=O)C1CCOCC1)C1=CC(=O)c2c(O)ccc(O)c2C1=O
Activity [16]: 63.45%

SMILES: CC(C)=CC[C@H](O)C1=CC(=O)c2c(O)ccc(O)c2C1=O [ALKANNIN]
IC50 (HepG2 [18]): 4 µM
IC50 (SW-620): 4 µM
IC50 (A549 [19]): 4 µM
IC50 (Huh-7): 4 µM
IC50 (NCI-H460): 4 µM
IC50 (MCF7 [20]): 4 µM
IC50 (NCI-H1299 [21]): 4 µM
IC50 (HCT-116 [22]): 4 µM
Activity (SW480 [23]): >50%
IC50 (MDA-MB-231 [24]): 4 µM
IC50 (BT-549): 4 µM
IC50 (SW480 [25]): 4 µM
IC50 (SK-BR-3): 4 µM
IC50 (MDA-MB-468): 4 µM

SMILES: O=C1C=CC(=O)c2c(O)cccc21 [JUGLONE]
Activity (U-87 MG [26]): 23.6%
IC50 (HepG2 [27]): 20.4 µM

SMILES: CC(C)=CCC1=C(O)C(=O)c2ccccc2C1=O [LAPACHOL]
IC50 (C6 [28]): 3.7 µM
Activity (C6 [29]): 37%

SMILES: CC1=CC(=O)c2ccccc2C1=O [MENADIONE]
IC50 (DBTRG-05MG [30]): 13 µM
IC50 (DBTRG-05MG [31]): 22 µM

SMILES: O=C1C=CC(=O)c2ccccc21 [NAPHTHOQUINONE]
IC50 (AGS): 2.5 µM

SMILES: CC1=CC(=O)c2c(O)cccc2C1=O [PLUMBAGIN]
IC50 (MCF7 [32]): 1 µM
IC50 (HL-60): 1.5 µM
Activity (EL4): 80%
IC50 (MDA-MB-231 [33]): 1.5 µM
IC50 (MCF7 [34]): 1.5 µM
IC50 [35]: 1 µM
IC50 [36]: 1 µM

SMILES: CC(C)=CC[C@@H](O)C1=CC(=O)c2c(O)ccc(O)c2C1=O [SHIKONIN]
Activity (NAMALVA [37]): 50%
IC50 [38]: < 5 µM
IC50 (A549 [39]): 3.52 µg/mL (≈ 12.2 µM)
IC50 (NAMALVA [40]): 193 µM

— ChEMBL document CHEMBL5512632, “Unlocking the potential of 1,4-naphthoquinones: A comprehensive review of their anticancer properties” (Eur J Med Chem, 2024)
